# Patent US20090181975A1, “NEBIVOLOL IN THE TREATMENT OF SEXUAL DYSFUNCTION” (FOREST LABORATORIES HOLDINGS LIMITED, priority 2008, published 2009)
# What was measured:
# [1] = tested on: cGMP in rat plasma; assay: Plasma cGMP content by ELISA; format: in vivo, rat (Sprague-Dawley)
# Procedure: To determine the plasma cGMP content, Sprague-Dawley rats were anesthetized with urethane (1.25 g/kg). The right carotid artery was catheterized for constant blood pressure and heart rate measurement by means of a pressure transducer connected to a PowerLab data acquisition system (ADInstruments). The left external jugular vein was catheterized for saline or drug infusion. After administering the respective treatments, rat plasma samples were collected, immediately frozen and stored at −80° C. until extraction for cyclic nucleotide assay. cGMP was determined by ELISA using a kit from Cayman Chemical Co. Plasmatic cGMP levels were determined 10 minutes after nebivolol administration.
# [2] = tested on: anesthetized rats; assay: Erectile responses: intracavernosal pressure (ICP) increases to cavernosal nerve electrical stimulation; format: in vivo, rat (Sprague-Dawley); conditions: 3 mg/kg i.v.
# Procedure: The effects of nebivolol administration on rat erectile function were studied. Erectile responses in rats were evaluated by measuring intracavernosal pressure (ICP) increases to cavernosal nerve electrical stimulation. To measure ICP, rats (Sprague-Dawley) were anesthetized with ketolar and diazepam. The surgical procedure included dissection and isolation of the right cavernous nerve through an abdominal midline incision and exposure of penile crura through a transverse perineal incision. ICP measurements were permitted by insertion of a 23-gauge needle into the right crus. The right carotid artery and left external jugular vein were catheterized for constant blood pressure measurement and saline infusion, respectively. Electrostimulation was performed with a delicate platinum bipolar hook electrode connected to a stimulator and current amplifier. Parameters of electrical stimulation included pulses with a duration of 0.3 ms and 1.5 mA of current intensity for 1 min. Frequency-response curves were performed by applying stimulation at 1, 3 and 10 Hz with a lapse of 3 min between each increase of frequency.
# [3] = tested on: human penile resistance arteries (HPRA); assay: Relaxation of human penile resistance arteries contracted with U46619 (myograph); format: cell-based; parameters: effect on endothelium-dependent relaxation of HPRA caused by acetylcholine / effect on sildenafil-mediated relaxation of HPRA: unit of the concentration uncertain; conditions: for effect on endothelium-dependent relaxation of HPRA caused by acetylcholine: metoprolol (1 (unit uncertain)), nebivolol (0.3 (unit uncertain))
# Procedure: Specimens of human corpus cavernosum were obtained from organ donors and from impotent men at the time of penile prosthesis implantation. Tissues were placed in ice-cold M-400 solution (pH 7.4; 400 mOsm/kg, composition in w/v: 4.19% manitol, 0.2% KH2PO4, 0.97% K2HPO4.3H2O, 0.11% KCl and 0.08% NaHCO3) at the time of removal and transported to the laboratory for utilization within 16 h.
# To determine the resistance of penile small arteries, helicine arteries (lumen diameter 150-400 μm) which are the terminal branches of deep penile arteries, were dissected by carefully removing the adhering trabecular tissue, and arterial ring segments (2 mm long) were subsequently mounted on two 40 μm wires on microvascular double Halpern-Mulvany myographs (J.P. Trading, Aarhus, Denmark) for isometric tension recordings. The chambers were filled with PSS continuously bubbled with 95% O2/5% CO2 mixture to maintain a pH of 7.4. […]
# [4] = tested on: anesthetized rats; assay: Mean arterial pressure (MAP) and heart rate (HR) in anesthetized rats; format: in vivo, rat (Sprague-Dawley)
# Procedure: To determine blood pressure and heart rate, Sprague-Dawley rats (250-400 g) were anesthetized with ketolar and diazepam. The right carotid artery was catheterized for constant blood pressure and heart rate measurement by means of a pressure transducer connected to a PowerLab data acquisition system (ADInstruments). The left external jugular vein was catheterized for saline or drug infusion. 3 mg/kg nebivolol (n=6) or vehicle (50% glycofurol; n=4) was administered intravenously in anesthetized rats and MAP and HR were measured. […] The effect of nebivolol in combination with the type 5 phosphodiesterase (PDE-5) inhibitor sildenafil on hypotension and heart rate was studied in rats using the methods described above.
# [5] = tested on: anaesthetized dogs; conditions: cited from earlier work
# [6] = tested on: thiobarbituric acid reactive substances (TBARS) in rat serum; assay: Serum TBARS in STZ-diabetic rats; format: in vivo, rat (Sprague-Dawley); conditions: for effect on TBARS levels in diabetic rats: groups with and without sildenafil pooled
# Procedure: Male Sprague-Dawley rats were used as a model for this study. Diabetes was induced by a single injection of streptozotocin (STZ, 60 mg/kg; i.p.) dissolved in 0.1 M citric acid/trisodic citrate buffer (pH 4-4.5) and was assessed by glycemia determination 72 h after induction. Animals were kept, with free access to food and water, for 8 weeks before experimental assays. Eight weeks after induction of diabetes, rats show altered in vivo vascular function (Angulo et al., Naunyn-Schmiedeberg's Arch Pharmacol, 358(5), 529-37, 1998) and reduced erectile responses (Angulo et al., J. Sex Med., 2, 341-346, 2005). Blood glucose concentration was determined each week and just before the experiment. Insulin levels were not determined. Blood was collected from the right ventricle, clotted in gel and centrifuged at 1500×g to obtain serum. Thiobarbituric acid reactive substances (TBARS) were determined by reacting thiobarbituric acid with serum samples at 70° C. for 30 min and reading absorbance at 532 nm. Serum concentrations of TBARS were determined by using malondialdehyde (MDA) as a standard. […] Results were expressed as ng/ml of MDA equivalents. […] After 10 days treatment, diabetic rats were anesthetized and erectile responses to cavernosal nerve electrical stimulation (CNES) were determined. After an equilibration period, the PDE-5 inhibitor sildenafil (0.3 mg/kg) or the vehicle (25% glycofurol) was intravenously administered. Forty five minutes later, erectile responses to CNES were again evaluated, and 5 min after CNES application, blood was collected for obtaining plasma and serum, and the penis was excised. Serum samples were immediately frozen until determinations of NOx and TBARS. Plasma and penile tissues were immediately frozen until determinations of cGMP.
# [7] = tested on: spontaneous hypertensive rats; conditions: acute; cited from earlier work
# [8] = tested on: diabetic rats; assay: Glycemia, arterial pressure and heart rate in STZ-diabetic rats after 10 days s.c. treatment; format: in vivo, rat (Sprague-Dawley); conditions: 3 or 10 mg/kg/day s.c. for 10 days
# Procedure: Male Sprague-Dawley rats were used as a model for this study. Diabetes was induced by a single injection of streptozotocin (STZ, 60 mg/kg; i.p.) dissolved in 0.1 M citric acid/trisodic citrate buffer (pH 4-4.5) and was assessed by glycemia determination 72 h after induction. Animals were kept, with free access to food and water, for 8 weeks before experimental assays. Eight weeks after induction of diabetes, rats show reduced erectile responses (Angulo et al., Naunyn-Schmiedeberg's Arch Pharmacol, 358(5), 529-37, 1998; Angulo et al., J. Sex Med., 2, 341-346, 2005). Blood glucose concentration was determined each week and just before the experiment. Insulin levels were not determined. […] After this period of treatment, the diabetic rats were anesthetized and ICP responses to electrical stimulation were evaluated. After an equilibration period, the PDE5 inhibitor sildenafil (0.3 mg/kg) or the vehicle (25% glycofurol) was intravenously administered. Forty five minutes later, ICP responses were again determined
# [9] = 3 mg/kg i.v., vs vehicle (50% glycofurol)
# [10] = nebivolol 1 mg/kg i.v., pre-treatment sildenafil 0.3 mg/kg i.v.
# [11] = nebivolol 3 mg/kg i.v., L-NAME 3 mg/kg, ODQ 1 mg/kg, propranolol 1 mg/kg, sildenafil 0.3 mg/kg i.v.
compound,measurement,setting,value
"OC(CNCC(O)C1CCc2cc(F)ccc2O1)C1CCc2cc(F)ccc2O1 (racemic) [nebivolol, α,α′-iminobis(methylene)bis[6-fluoro-2-chromanmethanol]]",increase in plasma cGMP levels,"[1]; 3 mg/kg i.v., 10 minutes after administration, percentage of cGMP concentration before administration (FIG. 15)",177±38%
same,interaction with sildenafil on plasma cGMP levels,[1]; combination of sildenafil and nebivolol,synergistically increases plasma cGMP levels
same,plasma cGMP levels after combined administration with sildenafil,[1]; nebivolol 3 mg/kg + sildenafil 0.3 mg/kg i.v.,marked increase of cGMP levels
same,"plasma cGMP levels after combining sildenafil with nebivolol, dose-dependent",[1]; nebivolol 1 and 3 mg/kg + sildenafil 0.3 mg/kg i.v.,significant further increase
same,effect on erectile responses to CNES,[2],significantly potentiated
same,AUC of ICP at 3 Hz,"[2]; control 1612±294, p<0.05",2544±440 mmHg×s
same,EC50,"[3]; Homo sapiens, nebivolol 1 nM to 10 μM, read-out: EC50, endothelium-dependent vasodilation of HPRA",24.4 nM
same,Emax,"[3]; Homo sapiens, nebivolol 1 nM to 10 μM, read-out: Emax, endothelium-dependent vasodilation of HPRA",59.1 ± 10.3%
same,relaxation of HPRA compared with metoprolol or atenolol,[3]; U46619 30-100 nM,significantly more potent than those caused by metoprolol or atenolol
same,relaxation of HPRA by cumulative addition,"[3]; U46619 30-100 nM, 1 nM to 0.1 mM",marked relaxations
same,effect on endothelium-dependent relaxation of HPRA caused by acetylcholine,[3]; atenolol (1 (unit uncertain)),not affected
same,effect on sildenafil-mediated relaxation of HPRA,"[3]; nebivolol (1 (unit uncertain)), atenolol (1 (unit uncertain))",able to enhance
same,effect on blood pressure,[4]; 1 mg/kg i.v.,hypotensive and bradycardic effects of moderate intensity
same,effect on heart rate,[4]; 1 mg/kg i.v.,hypotensive and bradycardic effects of moderate intensity
same,effect on heart rate (HR),[4]; [9],significant reduction of heart rate
same,effect on mean arterial pressure (MAP),[4]; [9],significant hypotensive effect
same,effect on stroke volume,[5],augments stroke volume
same,effect on total peripheral vascular resistance,[5],decreases total peripheral vascular resistance
same,effect on TBARS levels in diabetic rats,[6]; 10 mg/kg/day for 10 days,significant reduction
same,effect on TBARS levels in diabetic rats,[6]; administered for 10 days,trend to reduce
same,effect on blood pressure,[7],acutely lowers blood pressure
same,effect on arterial pressure in diabetic rats,[8],Neither diabetes nor either drug treatment (nebivolol or atenolol) significantly affected
same,effect on heart rate in diabetic rats,[8],further reduced
CC(C)NCC(O)COc1ccc(CC(N)=O)cc1 (centres unmarked) [atenolol],effect on endothelium-dependent relaxation of HPRA caused by acetylcholine,[3]; atenolol (1 (unit uncertain)),not affected
same,effect on arterial pressure in diabetic rats,[8],Neither diabetes nor either drug treatment (nebivolol or atenolol) significantly affected
same,effect on heart rate in diabetic rats,[8],further reduced
CCCc1nn(C)c2c(=O)[nH]c(-c3cc(S(=O)(=O)N4CCN(C)CC4)ccc3OCC)nc12 [sildenafil],effect on plasma cGMP levels,"[1]; i.v.: atenolol 3 mg/kg, sildenafil 0.3 mg/kg, sodium nitroprusside 0.1 mg/kg",augmented cGMP up to similar levels than nebivolol
same,effect on blood pressure drop caused by nebivolol,[4]; [10],significantly enhanced
same,effect on reduction of heart rate caused by nebivolol,[4]; [10],not modified
same,effect on heart rate reduction caused by nebivolol,[4]; [11],did not significantly alter
same,effect on hypotension caused by nebivolol,[4]; [11],did not significantly alter
same,influence on serum TBARS levels,[6]; sildenafil 0.3 mg/kg i.v.,did not significantly influence
